Source: patent US5405843A, “Quinoline derivatives” (Mitsui Toatsu Chemicals, Incorporated, priority 1988, dated 1995)

Key:
[1] = system: Adriamycin resistant strain 2780 AD cells of human ovarian cancer A2780 cells; assay: Potentiating effect on incorporation of 3H-vincristine into adriamycin-resistant cancer cells; type: cell-based; conditions: Homo sapiens, 2780AD, 2 h, 20 nM 3H-vincristine, control = 100, read-out: 3H-vincristine accumulation; for activity at 1 µg/mL: compound 1 μg/ml; for activity at 10 µg/mL: compound 10 μg/ml
Experimental: Potentiating Effect of the Compounds on Incorporation of Anticancer Drugs into Drug-resistant Cancer Cells
Adriamycin resistant strain 2780 AD cells of human ovarian cancer A2780 cells (A. M. Rogan et al., Science 224, 994-996, 1984) were suspended at a concentration of 1×10^6 /ml in RPMI-1640 medium supplemented with 5% fetal calf serum, and 1 ml of the cancer cell suspension was dispensed into each well of a multi-well culture plate (24 wells, […] in diameter) and then incubated at 37° C. in an atmosphere of 5% CO2. After 24 hours incubation, the medium in each well was replaced by 0.5 ml of RPMI-1640 medium supplemented containing 20 nM ^3 H-vincristine (1×10^4 dpm/pmol), 5% fetal calf serum and 10 mM Hepes buffer. Five microliters of a solution of the compound to be tested, which had been dissolved in DMSO and diluted with […] (at a concentration of 1.0 microgram/ml or 10.0 micrograms/ml), was added to each well and the incubation was continued at 37° C. in 5% CO2 for 2 hours. The resultant cells were washed in cold saline-phosphate buffer. In each well was added 0.5 ml of 0.2N NaOH, and the resulting cell suspension in each well was independently transferred into a vial and then heated in a water bath at 56° C. for 30-60 minutes to dissolve the cells. After adding 4 ml of acid aquazole 2, the amount of ^3 H-vincristine incorporated into the cells was determined by a fluid scintillation counter.

[2] = system: Vincristine-resistant strain P388/VCR cells of mouse leukemia P388 cells; assay: Potentiating effect on vincristine in mice having vincristine-resistant mouse leukemia (survival); type: in vivo, mouse (female CDFI mice); conditions: peritoneal, once a day for 5 days; for T/C (rate of life prolongation): control = 100
[3] = compound 30 mg/kg + vincristine 100 ug/kg
[4] = compound 10 mg/kg + vincristine 100 ug/kg

| SMILES | activity at 1 µg/mL [1] | activity at 10 µg/mL [1] | Average surviving period [2, 3] | T/C (rate of life prolongation) [2, 3] | Average surviving period [2, 4] | T/C (rate of life prolongation) [2, 4] |
| --- | --- | --- | --- | --- | --- | --- |
| OC(COc1cccc2nc(Cl)ccc12)CN1CCN(C2c3ccccc3CCc3ccccc32)CC1 (stereo not shown) [Example 18, 5-[3-(4-(5-Dibenzosuberanyl)piperazine-1-yl)-2-hydroxypropoxy]-2-chloroquinoline] | 743% | 761% | 13.8 ± 0.4 days | 131% |  |  |
| OC(COc1cccc2ncccc12)CN1CCN(C2c3ccccc3C=Cc3ccccc32)CC1 (stereo not shown) [Example 20, 5-[3-(4-(5-Dibenzosuberenyl)piperazine-1-yl)-2-hydroxypropoxy]quinoline] | 794% |  | 13.7 ± 1.0 days | 133% |  |  |
| Cc1cc(C)c2c(OCC(O)CN3CCN(C4c5ccccc5COc5ccccc54)CC3)cccc2n1 (stereo not shown) [Example 21, 2,4-Dimethyl-5-[3-(4-(6,11-dihydrodibenzo[b,e]oxepine-11-yl)piperazine-1-yl)-2-hydroxypropoxy]quinoline] | 727% | 745% | 12.5 ± 0.6 days | 121% |  |  |
| Cc1cc(C)c2c(OCC(O)CN3CCN(C4c5ccccc5CCc5ccccc54)CC3)cccc2n1 (stereo not shown) [Example 22, 5-[3-(4-(Dibenzosuberane-5-yl)piperazine-1-yl)-2-hydroxypropoxy]-2,4-dimethylquinoline] | 723% | 743% | 13.9 ± 0.4 days | 132% |  |  |
| c1ccc(C(c2ccccc2)N2CCN(CCCOc3cccc4ncccc34)CC2)cc1 [Example 32, 5-[3-(4-Diphenylmethylpiperazine-1-yl)propoxy]quinoline] | 816% |  | 11.3 ± 0.4 days | 110% |  |  |
| c1ccc(C(c2ccccc2)N2CCN(CCOc3cccc4ncccc34)CC2)cc1 [Example 34, 5-[2-(4-Diphenylmethylpiperazine-1-yl)ethoxy]quinoline] | 785% |  | 10.8 ± 0.8 days | 98% |  |  |
| O=C(CCN1CCN(C(c2ccccc2)c2ccccc2)CC1)Nc1cccc2ncccc12 [Example 35, 5-[3-(4-Diphenylmethypiperazine-1-yl)propionamido]-quinoline] | 654% | 627% | 11.9 ± 0.7 days | 116% |  |  |
| O=C(CCN1CCN(C2c3ccccc3CCc3ccccc32)CC1)Nc1cccc2ncccc12 [Example 36] | 821% | 716% | 12.6 ± 0.9 days | 122% |  |  |
| OC(COc1cccc2nc(Cl)ccc12)CN1CCN(C(c2ccccc2)c2ccccc2)CC1 (stereo not shown) [Example 41, 2-Chloro-5-[3-(4-diphenylmethylpiperazine-1-yl)-2-hydroxypropoxy]quinoline] | 584% |  | 13.2 ± 1.8 days | 120% |  |  |
| COc1ccc2c(OCC(O)CN3CCN(C(c4ccccc4)c4ccccc4)CC3)cccc2n1 (stereo not shown) [Example 42, 5-[3-(4-Diphenylmethylpiperazine-1-yl)-2-hydroxypropoxy]-2-methoxyquinoline] | 624% |  | 13.9 ± 2.4 days | 126% |  |  |
| OC(COc1cccc2cnccc12)CN1CCN(C2c3ccccc3CCc3ccccc32)CC1 (stereo not shown) [Example 44, 5-[3-(4-(Dibenzosuberane-5-yl)piperazine-1-yl)-2-hydroxypropoxy]isoquinoline] | 636% | 934% | 13.8 ± 1.0 days | 123% | 12.5 ± 0.0 days | 112% |
| Cc1cc(C)c2c(OCC(O)CN3CCN(C(=O)C(c4ccccc4)c4ccccc4)CC3)cccc2n1 (stereo not drawn) [Example 53, 2,4-Dimethyl-5-[3-((α,α-diphenylacetyl)piperazine-1-yl)-2-hydroxypropoxy]quinoline] | 658% | 794% | 11.8 ± 0.8 days | 111% |  |  |
| Cc1cc(C(F)(F)F)nc2cccc(OCC(O)CN3CCN(C(=O)C(c4ccccc4)c4ccccc4)CC3)c12 (stereo not drawn) [Example 55, 2-Trifluoromethyl-4-methyl-5-[3-(4-(α,α-diphenylacetyl)piperazine-1-yl)-2-hydroxypropoxy]quinoline] | 452% | 756% | 12.7 ± 0.3 days | 120% |  |  |
| OC(COc1cccc2ncccc12)CN1CCN(C(c2ccc(F)cc2)c2ccc(F)cc2)CC1 (stereo not shown) [Example 57, 5-(3-[4-(Bis(4-fluorophenyl)methyl)piperazine-1-yl]-2-hydroxypropoxy)quinoline] | 572% | 732% | 13.1 ± 0.4 days | 124% |  |  |
| OC(COc1cccc2ncccc12)CN1CCN(C(c2ccccc2)c2ccc(Cl)cc2)CC1 (stereo not shown) [Example 58, 5-(3-[4-((4-Chlorophenyl)-phenylmethyl)piperazine-1-yl]-2-hydroxypropoxy)quinoline] | 619% | 843% | 13.8 ± 1.8 days | 130% |  |  |
| COc1ccc(C(c2ccc(OC)cc2)N2CCN(CC(O)COc3cccc4ncccc34)CC2)cc1 (stereo not shown) [Example 59, 5-(3-[4-(Bis-(4-methoxyphenyl)methyl)piperazine-1-yl] -2-hydroxypropoxy)quinoline] | 561% | 685% | 13.2 ± 1.2 days | 125% |  |  |
| O=C(N1CCN(CC(O)COc2cccc3ncccc23)CC1)N1c2ccccc2CCc2ccccc21 (stereo not shown) [Example 60, 5-[3-(4-(Iminodibenzyl-5-carbonyl)piperazine-1-yl)-2-hydroxypropoxy]quinoline] | 643% | 760% | 12.4 ± 0.7 days | 117% |  |  |
| Cc1cc(C)c2c(OCC(O)CN3CCN(C(=O)N4c5ccccc5CCc5ccccc54)CC3)cccc2n1 (stereo not shown) [Example 61, 2,4-Dimethyl-5-[3-(4-(iminodibenzyl-5-carbonyl)piperazine-1-yl)-2-hydroxypropoxy]quinoline] | 519% | 602% | 11.5 ± 0.3 days | 108% |  |  |
| OC(COc1cccc2ncccc12)CN1CCC(C2(O)c3ccccc3CCc3ccccc32)CC1 (stereo not shown) [Example 78, 5-[2-Hyroxy-3-(4-(5-hydroxydibenzosuberane-5-yl)piperidine-1-yl)propoxy]quinoline] | 943% |  | 12.8 ± 0.8 days | 120% |  |  |
| OC(COc1cccc2ncccc12)CN1CCC(=C2c3ccccc3CCc3ccccc32)CC1 (stereo not shown) [Example 80, 5-[3-(4-(Dibenzosuberane-5-ylidene)piperidine-1-yl)-2-hydroxypropoxy]quinoline] | 942% |  | 14.3 ± 0.6 days | 134% |  |  |
| OC(COc1cccc2ncccc12)CN1CCC(C2c3ccccc3CCc3ccccc32)CC1 (stereo not shown) [Example 81, 5-[3-(4-(Dibenzosuberane-5-yl)piperidine-1-yl)-2-hydroxypropoxy]quinoline] | 992% |  | 13.2 ± 0.9 days | 123% |  |  |
| CN(CCCN1c2ccccc2CCc2ccccc21)CC(O)COc1cccc2ncccc12 (stereo not shown) [Example 82, 5-[3-(N-Methyl-N-(3-(5H-10,11-dihydrodibenzo(b,f)-azepin-5-yl)propyl)amino]-2-hydroxypropoxy]quinoline] | 667% |  | 11.2 ± 1.4 days | 105% |  |  |
| c1ccc2c(c1)CCc1ccccc1C2N1CCN(CCCOc2cccc3ncccc23)CC1 [Example 83, 5-[3-(4-(Dibenzosuberane-5-yl)piperazine-1-yl)propoxy]quinoline] | 957% |  | 13.5 ± 0.5 days | 126% |  |  |
| c1ccc(C(=C2CCN(CCCOc3cccc4ncccc34)CC2)c2ccccc2)cc1 [Example 84, 5-[3-(4-(Diphenylmethylene)piperidine-1-yl)propoxy]quinoline] | 159% | 878% | 13.0 ± 0.7 days | 121% |  |  |
